Measurements taken from US8637525B2, “Compounds for the reduction of beta-amyloid production” (Bristol-Myers Squibb Company, priority 2009, dated 2014).
Structures can show the parent of a compound that is named as a salt. Where two headings read alike, the source gives them in different places.

System: Aβ1-42 production
Experiment: Cellular assay for inhibition of Aβ1-42 production (H4 APP751 SWE clone 8.20)
Type: cell-based
Details: H4 APP751 SWE clone 8.20 cells, 19 h incubation
Method in brief: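 H4 cells stably expressing Swedish-mutant APP751 incubated with compound 19 h at 37 °C, 5% CO2. Secreted Aβ42 detected by HTRF with Aβ42 neoepitope antibody 565 (0.8 ng/well) and N-terminal 26D6 (75 ng/well), overnight at 4 °C. IC50 obtained by curve fitting.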

[1] = class symbols, read-out: Activity Rating (Aβ42 cellular IC50)
[2] = 19 h, read-out: Activity Rating (Aβ42 cellular IC50), numeric value
[3] = 19 h, class symbols, read-out: Activity Rating (Aβ42 cellular IC50)

| Structure (SMILES) | IC50 [1] [nM] | IC50 [3] [nM] | other results |
| --- | --- | --- | --- |
| CCNc1nc(Nc2ccc(-n3cnc(Cl)c3)c(OC)c2)nc2c1CN(C(=O)C1CC1)CC2c1ccccc1 (stereo not drawn) [Example 132A, (2-(4-(4-chloro-1H-imidazol-1-yl)-3-methoxyphenylamino)-4-(ethylamino)-8-phenyl-7,8-dihydropyrido[4,3-d]pyrimidin-6(5H)-yl)(cyclopropyl)methanone] |  |  | IC50 [2]: 15 nM |
| CCN(C)c1nc(Nc2ccc(-n3cnc(Cl)c3)c(OC)c2)nc2c1CNCC2c1ccc(F)cc1 (stereo not drawn) [Example 161, N2-(4-(4-chloro-1H-imidazol-1-yl)-3-methoxyphenyl)-N4-ethyl-8-(4-fluorophenyl)-N4-methyl-5,6,7,8-tetrahydropyrido[4,3-d]pyrimidine-2,4-diamine] |  | 100 to 1000 |  |
| CNc1nc(Nc2ccc3c(ccn3C)c2)nc2c1CCC2c1ccccc1 (stereo not drawn) [Example 254, N4-methyl-N2-(1-methyl-1H-indol-5-yl)-7-phenyl-6,7-dihydro-5H-cyclopenta[d]pyrimidine-2,4-diamine] |  |  | IC50 [2]: 1000 nM |
| CCNc1nc(Nc2ccc(-n3ncnc3C)c(F)c2)nc2c1COCC2c1ccc(F)c(F)c1 (stereo not drawn) [Example 116B, 8-(3,4-difluorophenyl)-N4-ethyl-N2-(3-fluoro-4-(5-methyl-1H-1,2,4-triazol-1-yl)phenyl)-7,8-dihydro-5H-pyrano[4,3-d]pyrimidine-2,4-diamine] | 100 to 1000 |  |  |
| COc1cc(Nc2nc3c(c(N4CC(C)(OC)C4)n2)CCC3c2ccc(F)cc2)ccc1-n1cnc(C)n1 (stereo not drawn) [Example 192, 7-(4-fluorophenyl)-4-(3-methoxy-3-methylazetidin-1-yl)-N-(3-methoxy-4-(3-methyl-1H-1,2,4-triazol-1-yl)phenyl)-6,7-dihydro-5H-cyclopenta[d]pyrimidin-2-amine] |  |  | IC50 (read-out: Activity Rating (Aβ42 cellular IC50), numeric value): 64 nM |
| CNc1nc(Nc2ccc(-n3cnc(Cl)c3)c(OC)c2)nc2c1COCC2c1ccc(F)c(F)c1 (stereo not drawn) [Example 115B, N2-(4-(4-chloro-1H-imidazol-1-yl)-3-methoxyphenyl)-8-(3,4-difluorophenyl)-N4-methyl-7,8-dihydro-5H-pyrano[4,3-d]pyrimidine-2,4-diamine] | 10 to 100 |  |  |
| COc1cc(Nc2nc3c(c(N4CC(F)(F)C4)n2)COCC3c2ccc(F)cc2)ccc1-n1cnc(Cl)c1 (stereo not drawn) [Example 63B, N-(4-(4-chloro-1H-imidazol-1-yl)-3-methoxyphenyl)-4-(3,3-difluoroazetidin-1-yl)-8-(4-fluorophenyl)-7,8-dihydro-5H-pyrano[4,3-d]pyrimidin-2-amine] | 100 to 1000 |  |  |
| COc1cc(Nc2nc3c(c(N4CC(OC)C4)n2)CCC3c2ccccc2)ccc1-n1cnc(Cl)c1 (single isomer, unassigned) [Example 183B, N-(4-(4-chloro-1H-imidazol-1-yl)-3-methoxyphenyl)-4-(3-methoxyazetidin-1-yl)-7-phenyl-6,7-dihydro-5H-cyclopenta[d]pyrimidin-2-amine] | 10 to 100 |  |  |
| COc1cc(Nc2nc3c(c(N4CCC(F)C4)n2)CCOC3c2ccc(F)cc2)ccc1-n1cnc(Cl)c1 (stereo in doubt) [Example 91A, N-(4-(4-chloro-1H-imidazol-1-yl)-3-methoxyphenyl)-8-(4-fluorophenyl)-4-((S)-3-fluoropyrrolidin-1-yl)-6,8-dihydro-5H-pyrano[3,4-d]pyrimidin-2-amine] | 1.5 to 9.9 |  |  |
| CNc1nc(Nc2ccc(-n3cnc(Cl)c3)c(OC)c2)nc2c1COCC2c1ccc(C(F)(F)F)cc1 (stereo not drawn) [Example 120B, N2-(4-(4-chloro-1H-imidazol-1-yl)-3-methoxyphenyl)-N4-methyl-8-(4-(trifluoromethyl)phenyl)-7,8-dihydro-5H-pyrano[4,3-d]pyrimidine-2,4-diamine] | 100 to 1000 |  |  |
| CNc1nc(Nc2ccc(-n3cnc(C)n3)c(OC)c2)nc2c1COCC2c1ccc(Cl)cc1 (single isomer, unassigned) [Example 71B, 8-(4-chlorophenyl)-N^2-(3-methoxy-4-(3-methyl-1H-1,2,4-triazol-1-yl)phenyl)-N^4-methyl-7,8-dihydro-5H-pyrano[4,3-d]pyrimidine-2,4-diamine] | 10 to 100 |  |  |
| COc1cc(Nc2nc3c(c(N4CC(F)(F)C4)n2)CN(S(C)(=O)=O)CC3c2ccc(F)cc2)ccc1-n1cnc(Cl)c1 (stereo not drawn) [Example 160, N-(4-(4-chloro-1H-imidazol-1-yl)-3-methoxyphenyl)-4-(3,3-difluoroazetidin-1-yl)-8-(4-fluorophenyl)-6-(methylsulfonyl)-5,6,7,8-tetrahydropyrido[4,3-d]pyrimidin-2-amine] |  | 10 to 100 |  |
| COCC(Nc1nc(Nc2ccc(-n3cnc(Cl)c3)c(OC)c2)nc2c1CCC2c1ccc(F)cc1)C1CC1 (single isomer, unassigned) [Example 45A, N2-(4-(4-chloro-1H-imidazol-1-yl)-3-methoxyphenyl)-N4-(1-cyclopropyl-2-methoxyethyl)-7-(4-fluorophenyl)-6,7-dihydro-5H-cyclopenta[d]pyrimidine-2,4-diamine] | 10 to 100 |  |  |
| CNc1nc(Nc2ccc(-n3cnc(Cl)c3)c(OC)c2)nc2c1CCC2c1ccc(OC(F)(F)F)cc1 (single isomer, unassigned) [Example 97A, N^2-(4-(4-chloro-1H-imidazol-1-yl)-3-methoxyphenyl)-N^4-methyl-7-(4-(trifluoromethoxy)phenyl)-6,7-dihydro-5H-cyclopenta[d]pyrimidine-2,4-diamine] | 1.5 to 9.9 |  |  |
| CCNc1nc(Nc2ccc(-n3cnc(Cl)c3)c(OC)c2)nc2c1COCC2c1ccc(F)c(F)c1 (racemic) [Example 113, N2-(4-(4-chloro-1H-imidazol-1-yl)-3-methoxyphenyl)-8-(3,4-difluorophenyl)-N4-ethyl-7,8-dihydro-5H-pyrano[4,3-d]pyrimidine-2,4-diamine, TFA] |  |  | IC50 [2]: 5.7 nM |

More lines, main results first:

| IC50 [1] [nM] | IC50 [3] [nM] | Structure (SMILES) | other results |
| --- | --- | --- | --- |
| 1.5 to 9.9 |  | CCN(C)c1nc(Nc2ccc(-n3cnc(Cl)c3)c(OC)c2)nc2c1CCN(S(C)(=O)=O)C2c1ccc(F)cc1 (stereo not drawn) [Example 172A, N2-(4-(4-chloro-1H-imidazol-1-yl)-3-methoxyphenyl)-N4-ethyl-8-(4-fluorophenyl)-N4-methyl-7-(methylsulfonyl)-5,6,7,8-tetrahydropyrido[3,4-d]pyrimidine-2,4-diamine] |  |
| 10 to 100 |  | CCNc1nc(Nc2ccc(-n3cnc(Cl)c3)c(OC)c2)nc2c1CN(S(=O)(=O)CC)CC2c1ccccc1 (stereo not drawn) [Example 138, N2-(4-(4-chloro-1H-imidazol-1-yl)-3-methoxyphenyl)-N4-ethyl-6-(ethylsulfonyl)-8-phenyl-5,6,7,8-tetrahydropyrido[4,3-d]pyrimidine-2,4-diamine] |  |
|  | 10 to 100 | CCN(C)c1nc(Nc2ccc(-n3cnc(Cl)c3)c(OC)c2)nc2c1CN(C)CC2c1ccc(F)cc1 (stereo not drawn) [Example 165, N2-(4-(4-chloro-1H-imidazol-1-yl)-3-methoxyphenyl)-N4-ethyl-8-(4-fluorophenyl)-N4,6-dimethyl-5,6,7,8-tetrahydropyrido[4,3-d]pyrimidine-2,4-diamine] |  |
|  | 10 to 100 | CNc1nc(Nc2ccc(-n3ncnc3C)c(F)c2)nc2c1CN(C)CC2c1ccccc1 (stereo not drawn) [Example 150, N2-(3-fluoro-4-(5-methyl-1H-1,2,4-triazol-1-yl)phenyl)-N4,6-dimethyl-8-phenyl-5,6,7,8-tetrahydropyrido[4,3-d]pyrimidine-2,4-diamine] |  |
|  | 10 to 100 | CNc1nc(Nc2ccc(-c3ccnc(Cl)c3)c(OC)c2)nc2c1CCC2c1ccccc1 (stereo not drawn) [Example 278, N2-(4-(2-chloropyridin-4-yl)-3-methoxyphenyl)-N4-methyl-7-phenyl-6,7-dihydro-5H-cyclopenta[d]pyrimidine-2,4-diamine] |  |
|  | 10 to 100 | CNc1nc(Nc2ccc(-n3cnc(Cl)c3)c(OC)c2)nc2c1COCC2c1ccc(Cl)cc1 (stereo not drawn) [Example 64, N^2-(4-(4-chloro-1H-imidazol-1-yl)-3-methoxyphenyl)-8-(4-chlorophenyl)-N^4-methyl-7,8-dihydro-5H-pyrano[4,3-d]pyrimidine-2,4-diamine] |  |
| 100 to 1000 |  | CCNc1nc(Nc2ccc(-n3cnc(Cl)c3)c(OC)c2)nc2c1COCC2c1ccc(C(F)(F)F)cc1 (stereo not drawn) [Example 118B, N2-(4-(4-chloro-1H-imidazol-1-yl)-3-methoxyphenyl)-N4-ethyl-8-(4-(trifluoromethyl)phenyl)-7,8-dihydro-5H-pyrano[4,3-d]pyrimidine-2,4-diamine] |  |
| 1.5 to 9.9 |  | CNc1nc(Nc2ccc(-n3ncnc3C)c(OC)c2)nc2c1CN(C)CC2c1ccc(F)cc1 (stereo not drawn) [Example 199B, 8-(4-fluorophenyl)-N2-(3-methoxy-4-(5-methyl-1H-1,2,4-triazol-1-yl)phenyl)-N4,6-dimethyl-5,6,7,8-tetrahydropyrido[4,3-d]pyrimidine-2,4-diamine] |  |
| 10 to 100 |  | COc1cc(Nc2nc3c(c(N4C[C@@H](C)O[C@@H](C)C4)n2)CCC3c2ccc(F)cc2)ccc1-n1cnc(Cl)c1 (single isomer, unassigned) [Example 21A] |  |
|  | 10 to 100 | COc1cc(Nc2nc3c(c(N4CC(F)(F)C4)n2)CCC3c2ccc(F)cc2)ccc1-n1cnc(Cl)c1 (stereo not drawn) [Example 15, N-(4-(4-Chloro-1H-imidazol-1-yl)-3-methoxyphenyl)-4-(3,3-difluoroazetidin-1-yl)-7-(4-fluorophenyl)-6,7-dihydro-5H-cyclopenta[d]pyrimidin-2-amine] |  |
|  | 10 to 100 | CNc1nc(Nc2ccc(-n3cnc(C)n3)c(F)c2)nc2c1CN(C)CC2c1ccccc1 (stereo not drawn) [Example 149, N2-(3-fluoro-4-(3-methyl-1H-1,2,4-triazol-1-yl)phenyl)-N4,6-dimethyl-8-phenyl-5,6,7,8-tetrahydropyrido[4,3-d]pyrimidine-2,4-diamine] |  |
|  | 10 to 100 | CCNc1nc(Nc2ccc(-n3ncnc3C)c(F)c2)nc2c1COCC2c1ccc(F)c(F)c1 (racemic) [Example 116, 8-(3,4-difluorophenyl)-N4-ethyl-N2-(3-fluoro-4-(5-methyl-1H-1,2,4-triazol-1-yl)phenyl)-7,8-dihydro-5H-pyrano[4,3-d]pyrimidine-2,4-diamine, TFA] |  |
